Structures can show the parent of a compound that is named as a salt. Where two headings read alike, the source gives them in different places.
What was measured:
Assay type in all cases: cell-based
[1] = tested on: multi-drug resistant (MDR) murine leukemia cell line P388ADR; experiment: Inhibition of cell proliferation (GI50) in P388/ADR cells; conditions: Mus musculus, Table IV, read-out: GI50 in Multi-Cancer Cells P388/ADR
Method: (§1) Human breast cancer cell lines T-47D, MX-1 and MDAMB435, human colon cancer cell line HT29, and human lung cancer cell line H1299 were grown and harvested as in Example 75. An aliquot of […] of cells (4.4×10^4 cells/mL) was added to a well of a 96-well microtiter plate containing 5 μL of a 10% DMSO in RPMI-1640 media solution containing 10 nM to 100 μM of N-(2,5-dimethoxyphenyl)-2-methylthieno[3,2-d]pyrimidin-4-amine (1 nM to 10 μM final). An aliquot of 45 μL of cells was added to a well of a 96-well microtiter plate containing 5 μL of a 10% DMSO in RPMI-1640 media solution without compound as the control sample for maximal cell proliferation (Lmax). The samples were mixed by agitation and then incubated at 37° C. for 48 h in a 5% CO2-95% humidity incubator. After incubation, the samples were removed from the incubator and 25 μL of CellTiter-Glo™ reagent (Promega) was added. The samples were mixed by agitation and incubated at room temperature for 10-15 min. Plates were then read using a luminescent plate reader (Model SPECTRAfluor Plus, Tecan) to give Ltest values.
(§2) Baseline for GI50 (dose for 50% inhibition of cell proliferation) of initial cell numbers was determined by adding an aliquot of 45 μL of cells or 45 μL of media, respectively, to wells of a 96-well microtiter plate containing 5 μL of a 10% DMSO in RPMI-1640 media solution. The samples were mixed by agitation and then incubated at 37° C. for 0.5 h in a 5% CO2-95% humidity incubator. After incubation, the samples were removed from the incubator and 25 μL of CellTiter-Glo™ reagent (Promega) was added. The samples were mixed by agitation and incubated at 37° C. for 10-15 min at room temperature in a 5% CO2-95% humidity incubator. Fluorescence was read as above, (LStart) defining luminescence for initial cell number used as baseline in GI50 determinations.
(§3) GI50 (dose for 50% inhibition of cell proliferation) is the concentration where [(LTest−Lstart)/(LMax−Lstart)]=0.5.
(§4) Several compounds were tested in multi cancer cell lines, including human breast cancer cell lines T-47D, MX-1, SKBR3 and MDAMB435, human hepatocellular carcinoma cell line SNU398, human colon carcinoma cell line HCT116, human sarcoma cell line MES-SA and multi-drug resistant (MDR) human sarcoma cell line MES-SA/ADR, murine leukemia cell line P388 and multi-drug resistant (MDR) murine leukemia cell line P388ADR, and the data are summarized in Table IV.

[2] = tested on: human breast cancer cell line MX-1; experiment: Inhibition of cell proliferation (GI50) in MX-1 cells; conditions: MX1 cells
Method: as §1, §2, §3

[3] = tested on: human colon carcinoma cell line HCT116; experiment: Inhibition of cell proliferation (GI50) in HCT116 cells; conditions: HCT-116, Table IV, read-out: GI50 in Multi-Cancer Cells HCT116
Method: as §1, §2, §3, §4

[4] = tested on: human breast cancer cell line T-47D; experiment: Inhibition of cell proliferation (GI50, CellTiter-Glo) in T-47D cells; conditions: T47D cells
Method: as §1, §2, §3

[5] = tested on: human colon carcinoma cell line HCT116; experiment: Caspase cascade activation in HCT116 cells; conditions: read-out: Caspase activation Potency EC50 HCT116 (48 h)
Procedure, shortened: (§5)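 Cells were exposed to compound at 0.016 to 10 μM final for 24 h or 48 h at 37 °C. They were then lysed with 14 μM N-(Ac-DEVD)-N′-ethoxycarbonyl-R110 in lysolecithin/DTT/PIPES buffer pH 7.2 for 3 h at room temperature (ex 485/em 530 nm). EC50 came from a sigmoidal fit of net RFU relative to untreated control.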

[6] = tested on: murine leukemia cell line P388; experiment: Inhibition of cell proliferation (GI50) in P388 cells; conditions: Mus musculus, Table IV, read-out: GI50 in Multi-Cancer Cells P388
Method: as §1, §2, §3, §4

[7] = tested on: human breast cancer cell line SKBR3; experiment: Inhibition of cell proliferation (GI50) in SKBR3 cells; conditions: SK-BR-3, Table IV, read-out: GI50 in Multi-Cancer Cells SKBR3
Method: as §1, §2, §3, §4

[8] = tested on: human hepatocellular carcinoma cell line SNU398; experiment: Inhibition of cell proliferation (GI50) in SNU398 cells; conditions: SNU-398, Table IV, read-out: GI50 in Multi-Cancer Cells SNU398
Method: as §1, §2, §3, §4

[9] = tested on: human breast cancer cell line T-47D; experiment: Caspase cascade activation (DEVD-R110 fluorogenic substrate) in T-47D cells
Procedure, shortened: as §5

[10] = tested on: human breast cancer cell line MDAMB435; experiment: Inhibition of cell proliferation (GI50) in MDAMB435 cells
Method: as §1, §2, §3

[11] = tested on: multi-drug resistant (MDR) human sarcoma cell line MES-SA/ADR; experiment: Inhibition of cell proliferation (GI50) in MES-SA/ADR cells; conditions: Table IV, read-out: GI50 in Multi-Cancer Cells MES-SA/ADR
Method: as §1, §2, §3, §4

[12] = tested on: human hepatocellular carcinoma cell line SNU398; experiment: Caspase cascade activation in SNU398 cells; conditions: read-out: Caspase activation Potency EC50 SNU398 (48 h)
Procedure, shortened: as §5

[13] = tested on: human sarcoma cell line MES-SA; experiment: Inhibition of cell proliferation (GI50) in MES-SA cells; conditions: Table IV, read-out: GI50 in Multi-Cancer Cells MES-SA
Method: as §1, §2, §3, §4

[14] = tested on: human lung cancer cell line H1299; experiment: Caspase cascade activation in H1299 cells; conditions: NCI-H1299, 24 h, read-out: Caspase activation Potency EC50 H1299 (24 h)
Procedure, shortened: as §5

[15] = tested on: human colon cancer cell line HT29; experiment: Inhibition of cell proliferation (GI50) in HT29 cells; conditions: HT-29, Table III, 48 h
Method: as §1, §2, §3

[16] = tested on: human lung cancer cell line H1299; experiment: Inhibition of cell proliferation (GI50) in H1299 cells; conditions: NCI-H1299, Table III, 48 h
Method: as §1, §2, §3

[17] = tested on: human B cell lymphoblastoid cell line Ramos; experiment: Caspase cascade activation in Ramos cells; conditions: 48 h, read-out: Caspase Activation Potency EC50 Ramos
[18] = tested on: breast cancer cell line SKBR3; experiment: Caspase cascade activation in SKBR3 cells; conditions: Homo sapiens, SK-BR-3, 48 h, read-out: Caspase Activation Potency EC50 SKBR3
[19] = tested on: human lymphoma cell line Raji; experiment: Caspase cascade activation in Raji cells; conditions: 48 h, read-out: Caspase Activation Potency EC50 Raji
[20] = tested on: human Burkitt's lymphoma cell line Namalwa; experiment: Caspase cascade activation in Namalwa cells; conditions: Burkitts lymphoma cell, 48 h, read-out: Caspase Activation Potency EC50 Namalwa
[21] = Table IV, read-out: GI50 in Multi-Cancer Cells MX1
[22] = Table IV, read-out: GI50 in Multi-Cancer Cells T47D
[23] = Homo sapiens, T47D, 48 h, T-47D cells, 48 h, read-out: Caspase activation Potency EC50 T-47D (48 h)
[24] = MDA-MB-435, Table IV, read-out: GI50 in Multi-Cancer Cells MDAMB435
[25] = Table III, 48 h, read-out: GI50 in Cancer Cells MX1
[26] = Table III, 48 h, read-out: GI50 in Cancer Cells T47D
[27] = Homo sapiens, T47D, 24 h, T47D cells, 24 h, read-out: Caspase activation Potency EC50 T47D (24 h)
[28] = MDA-MB-435, Table III, 48 h, read-out: GI50 in Cancer Cells MDAMB435

SMILES | GI50 [1] [nM] | GI50 [2, 21] [nM] | GI50 [3] [nM] | GI50 [4, 22] [nM] | EC50 ([5]; Homo sapiens, HCT-116, 48 h) [nM] | GI50 [6] [nM] | GI50 [7] [nM] | GI50 [8] [nM] | EC50 [9, 23] [nM] | GI50 [10, 24] [nM] | GI50 [11] [nM] | EC50 ([12]; Homo sapiens, SNU-398, 48 h) [nM] | GI50 [13] [nM] | GI50 [2, 25] [nM] | GI50 [4, 26] [nM] | EC50 [14] [nM] | EC50 [9, 27] [nM] | GI50 [15] [nM] | GI50 [10, 28] [nM] | GI50 [16] [nM] | other results
COc1cc(Nc2ncnc3ccsc23)cc(N(C)C)c1 [Example 69, N-(3-Dimethylamino-5-methoxyphenyl)thieno[3,2-d]pyrimidin-4-amine] | 249 | 9850 | 300 | 133 | 323 | 381 | 100 | 276 | 191 | 41 | 520 | 251 | 600 | – | – | – | – | – | – | – | –
COc1ccc(OC)c(Nc2ncnc3scc(C)c23)c1 [Example 6, N-(2,5-Dimethoxyphenyl)-5-methylthieno[2,3-d]pyrimidin-4-amine hydrochloride] | – | – | – | – | > 10000 | – | – | – | > 10000 | – | – | > 10000 | – | > 10000 | > 10000 | > 10000 | > 10000 | > 10000 | > 10000 | > 10000 | –
COc1cc(Nc2nc(C)nc3ccsc23)cc(OC)c1 [Example 54, N-(3,5-Dimethoxyphenyl)-2-methylthieno[3,2-d]pyrimidin-4-amine] | 1100 | 100 | 6580 | 40 | 61 | 1050 | – | 1070 | 30 | 121 | 2000 | 256 | 788 | – | – | – | 27 | – | – | – | –
COc1cc(Nc2ncnc3ccsc23)cc(N(C)C)c1 [Example 70, N-(3-Dimethylamino-5-methoxyphenyl)thieno[3,2-d]pyrimidin-4-amine hydrochloride] | – | – | – | – | – | – | – | – | – | – | – | – | – | – | – | – | – | – | – | – | EC50 ([5]; 48 h, hydrochloride): 433 nM; EC50 [17]: 173 nM; EC50 ([9]; T-47D cells, 48 h, hydrochloride, read-out: Caspase activation Potency EC50 T-47D (48 h)): 241 nM; EC50 [18]: 153 nM; EC50 [19]: 399 nM; EC50 ([12]; 48 h, hydrochloride): 238 nM; EC50 [20]: 204 nM
COc1cc(N=[N+]=[N-])cc(Nc2ncnc3ccsc23)c1 [Example 71, N-(3-Azido-5-methoxyphenyl)thieno[3,2-d]pyrimidin-4-amine] | 157 | 1670 | 300 | 208 | 144 | 218 | 200 | 305 | 209 | 92 | 796 | 262 | 385 | – | – | – | – | – | – | – | –
COc1cc(Nc2ncnc3ccsc23)cc(-n2cnnn2)c1 [Example 61, N-(3-Methoxy-5-(1H-tetrazol-1-yl)phenyl)thieno[3,2-d]pyrimidin-4-amine] | 199 | 791 | 400 | 398 | 291 | 280 | 600 | 299 | 287 | 61 | 767 | 138 | 836 | – | – | – | 355 | – | – | – | –
COc1ccc(OC)c(Nc2ncnc3sccc23)c1 [Example 5, N-(2,5-Dimethoxyphenyl)thieno[2,3-d]pyrimidin-4-amine hydrochloride] | – | – | – | – | > 10000 | – | – | – | 296 | – | – | > 10000 | – | 300 | 200 | > 10000 | 147 | > 10000 | > 10000 | > 10000 | –
COc1ccc(OC)c(Nc2nc(C)nc3ccsc23)c1 [Example 1, N-(2,5-Dimethoxyphenyl)-2-methylthieno[3,2-d]pyrimidin-4-amine] | – | – | – | – | 2330 | – | – | – | 40 | – | – | 557 | – | 300 | 80 | 1550 | 65 | 3550 | 295 | 1170 | –

From patent publication US20070099877A1, “N-aryl-thienopyrimidin-4-amines and analogs as activators of caspases and inducers of apoptosis and the use thereof” (Cytovia, Inc., priority 2005, published 2007)
